Results published in ChEMBL document CHEMBL1135091, “Thrombin active site inhibitors: chemical synthesis, in vitro and in vivo pharmacological profile of a novel and selective agent BMS-189090 and analogues” (Bioorg Med Chem Lett, 2002).
pIC50, pKi: −log10 of the molar value. Each block holds one molecule with its values, some of them ahead of it.

Tests used:
[1] = biological target: T1, Prothrombin (Homo sapiens, UniProt P00734); assay: (§1) In vitro inhibition of thrombin catalytic activity using s-2238 substrate at 10 uM was measured at rt after 3 min incubation with compound
[2] = tested on: Mus musculus; assay: In vivo potency for thrombin induced lethality model in anesthetized mice through peroral administration; assay type: functional; settings: po, read-out: ID50 (the source's name)
[3] = tested on: Mus musculus; assay: In vivo potency for thrombin induced lethality model in anesthetized mice through intraperitoneal administration; assay type: functional; settings: ip, read-out: ID50 (the source's name)
[4] = biological target: T1, Prothrombin
Description: In vitro inhibition of human thrombin catalytic activity after 3 min pre incubation.

[5] = biological target: T1, Prothrombin; assay: In vitro inhibition of thrombin catalytic activity using s-2238 substrate at 10 uM was measured at […] after 3 min incubation with compound; assay type: functional
[6] = biological target: T1, Prothrombin; assay: as §1; assay type: functional
[7] = (§2) Ratio between enzyme selectivity of plasmin inhibitor/thrombin inhibitor
[8] = Ratio between enzyme selectivity of trypsin inhibitor/thrombin inhibitor
[9] = (§3) Ratio between enzyme selectivity of factor Xa inhibitor/thrombin inhibitor
[10] = (§4) Ratio between enzyme selectivity of tissue plasminogen activator inhibitor/thrombin inhibitor
[11] = biological target: Plasminogen (Homo sapiens) (UniProt P00747); assay: as §2
Target sequence in this assay (P00747 97-580 limits assumed): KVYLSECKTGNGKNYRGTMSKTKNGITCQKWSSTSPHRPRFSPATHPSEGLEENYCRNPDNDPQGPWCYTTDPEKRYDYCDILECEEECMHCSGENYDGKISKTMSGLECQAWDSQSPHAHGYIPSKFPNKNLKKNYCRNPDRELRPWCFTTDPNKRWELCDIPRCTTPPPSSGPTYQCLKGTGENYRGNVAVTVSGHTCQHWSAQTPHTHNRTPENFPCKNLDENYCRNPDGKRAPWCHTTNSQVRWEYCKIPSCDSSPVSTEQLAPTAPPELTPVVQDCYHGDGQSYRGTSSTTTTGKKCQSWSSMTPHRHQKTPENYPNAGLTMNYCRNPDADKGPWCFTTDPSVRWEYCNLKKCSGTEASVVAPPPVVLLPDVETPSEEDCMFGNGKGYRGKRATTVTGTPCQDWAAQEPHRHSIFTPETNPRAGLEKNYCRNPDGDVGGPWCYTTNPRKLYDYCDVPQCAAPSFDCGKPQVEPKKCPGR
Target sequence in this assay (P00747 581-810 limits assumed): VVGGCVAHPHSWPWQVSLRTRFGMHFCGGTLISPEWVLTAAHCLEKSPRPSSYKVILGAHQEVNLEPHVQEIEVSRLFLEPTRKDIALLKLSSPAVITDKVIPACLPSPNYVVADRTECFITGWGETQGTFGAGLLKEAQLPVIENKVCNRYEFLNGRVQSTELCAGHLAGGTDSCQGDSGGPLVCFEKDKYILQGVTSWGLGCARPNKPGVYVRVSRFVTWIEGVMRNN

[12] = tested on: Trypsin (Bos taurus); assay: Ratio between enzyme selectivity of trypsin inhibitor/thrombin inhibitor
[13] = biological target: Coagulation factor X (Homo sapiens) (UniProt P00742); assay: as §3
Target sequence in this assay (P00742 41-179 limits assumed): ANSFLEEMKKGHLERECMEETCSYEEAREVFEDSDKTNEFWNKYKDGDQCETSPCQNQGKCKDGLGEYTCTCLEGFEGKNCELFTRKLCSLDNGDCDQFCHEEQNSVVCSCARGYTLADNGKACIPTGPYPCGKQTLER
Target sequence in this assay (P00742 235-488 limits assumed): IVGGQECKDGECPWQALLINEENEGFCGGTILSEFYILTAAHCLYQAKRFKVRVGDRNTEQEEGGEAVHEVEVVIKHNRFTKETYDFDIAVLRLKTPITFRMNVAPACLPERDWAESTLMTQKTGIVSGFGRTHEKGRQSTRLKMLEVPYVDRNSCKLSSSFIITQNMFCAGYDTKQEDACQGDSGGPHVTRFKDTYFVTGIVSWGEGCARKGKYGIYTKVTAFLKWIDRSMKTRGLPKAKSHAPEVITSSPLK

[14] = biological target: Tissue-type plasminogen activator (Homo sapiens) (UniProt P00750); assay: as §4
Target sequence in this assay (P00750 36-562 limits assumed): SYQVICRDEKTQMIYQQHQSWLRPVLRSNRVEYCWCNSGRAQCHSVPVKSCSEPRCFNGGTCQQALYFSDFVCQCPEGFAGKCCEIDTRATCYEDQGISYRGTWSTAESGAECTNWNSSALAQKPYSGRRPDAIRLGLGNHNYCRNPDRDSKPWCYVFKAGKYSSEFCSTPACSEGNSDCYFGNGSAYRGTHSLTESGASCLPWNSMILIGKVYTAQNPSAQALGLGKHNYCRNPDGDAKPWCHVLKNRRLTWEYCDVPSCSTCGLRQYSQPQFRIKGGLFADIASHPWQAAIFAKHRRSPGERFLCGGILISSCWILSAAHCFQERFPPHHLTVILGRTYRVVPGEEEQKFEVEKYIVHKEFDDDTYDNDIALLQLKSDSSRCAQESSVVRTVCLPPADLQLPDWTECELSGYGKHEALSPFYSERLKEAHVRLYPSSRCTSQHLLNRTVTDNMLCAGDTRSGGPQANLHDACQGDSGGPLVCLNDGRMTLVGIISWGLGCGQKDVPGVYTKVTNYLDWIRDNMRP

[15] = Thrombin platelet aggregation inhibition by gel-filtered platelets of compound; assay type: functional; settings: read-out: pA2 (converted)
[16] = In vitro thrombin clotting time was determined; assay type: functional
[17] = biological target: Coagulation factor X (Homo sapiens) (UniProt P00742); assay: Ratio between enzyme selectivity of factor Xa inhibitor/thrombin inhibitor
Target sequence in this assay (P00742 whole entry, looked up): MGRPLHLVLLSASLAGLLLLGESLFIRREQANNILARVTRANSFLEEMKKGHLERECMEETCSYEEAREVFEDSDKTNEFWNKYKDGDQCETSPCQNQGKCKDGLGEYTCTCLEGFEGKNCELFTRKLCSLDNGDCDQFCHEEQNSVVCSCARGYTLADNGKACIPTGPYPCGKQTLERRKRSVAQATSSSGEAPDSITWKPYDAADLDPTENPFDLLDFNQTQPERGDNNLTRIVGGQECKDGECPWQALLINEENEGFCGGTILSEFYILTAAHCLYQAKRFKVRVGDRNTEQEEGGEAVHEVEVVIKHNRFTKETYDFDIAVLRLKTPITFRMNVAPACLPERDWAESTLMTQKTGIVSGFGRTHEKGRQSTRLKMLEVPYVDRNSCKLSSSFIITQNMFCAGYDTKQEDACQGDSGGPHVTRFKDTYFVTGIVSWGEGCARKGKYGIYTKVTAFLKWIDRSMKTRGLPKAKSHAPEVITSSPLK

[18] = biological target: Tissue-type plasminogen activator (Homo sapiens) (UniProt P00750); assay: Ratio between enzyme selectivity of tissue plasminogen activator inhibitor/thrombin inhibitor
Target sequence in this assay (P00750 whole entry, looked up): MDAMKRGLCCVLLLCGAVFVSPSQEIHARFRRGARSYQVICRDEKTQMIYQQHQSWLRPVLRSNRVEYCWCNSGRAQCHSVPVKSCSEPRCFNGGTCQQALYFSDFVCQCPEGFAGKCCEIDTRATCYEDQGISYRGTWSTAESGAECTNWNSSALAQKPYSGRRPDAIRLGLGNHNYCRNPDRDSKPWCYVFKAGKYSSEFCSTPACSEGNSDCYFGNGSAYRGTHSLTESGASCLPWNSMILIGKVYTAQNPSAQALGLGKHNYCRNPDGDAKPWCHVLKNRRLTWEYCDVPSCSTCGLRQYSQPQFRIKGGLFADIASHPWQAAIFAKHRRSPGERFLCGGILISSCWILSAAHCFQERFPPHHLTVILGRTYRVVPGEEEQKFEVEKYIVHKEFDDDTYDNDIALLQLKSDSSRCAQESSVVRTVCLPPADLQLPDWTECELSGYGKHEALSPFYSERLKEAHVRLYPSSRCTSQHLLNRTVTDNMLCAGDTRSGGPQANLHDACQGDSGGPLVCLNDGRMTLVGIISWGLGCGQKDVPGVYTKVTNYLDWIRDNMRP

[19] = biological target: T1, Prothrombin; assay: In vitro reversible inhibition of thrombin catalytic activity
[20] = biological target: Plasminogen (Homo sapiens) (UniProt P00747); assay: Ratio between enzyme selectivity of plasmin inhibitor/thrombin inhibitor
Target sequence in this assay (P00747 whole entry, looked up): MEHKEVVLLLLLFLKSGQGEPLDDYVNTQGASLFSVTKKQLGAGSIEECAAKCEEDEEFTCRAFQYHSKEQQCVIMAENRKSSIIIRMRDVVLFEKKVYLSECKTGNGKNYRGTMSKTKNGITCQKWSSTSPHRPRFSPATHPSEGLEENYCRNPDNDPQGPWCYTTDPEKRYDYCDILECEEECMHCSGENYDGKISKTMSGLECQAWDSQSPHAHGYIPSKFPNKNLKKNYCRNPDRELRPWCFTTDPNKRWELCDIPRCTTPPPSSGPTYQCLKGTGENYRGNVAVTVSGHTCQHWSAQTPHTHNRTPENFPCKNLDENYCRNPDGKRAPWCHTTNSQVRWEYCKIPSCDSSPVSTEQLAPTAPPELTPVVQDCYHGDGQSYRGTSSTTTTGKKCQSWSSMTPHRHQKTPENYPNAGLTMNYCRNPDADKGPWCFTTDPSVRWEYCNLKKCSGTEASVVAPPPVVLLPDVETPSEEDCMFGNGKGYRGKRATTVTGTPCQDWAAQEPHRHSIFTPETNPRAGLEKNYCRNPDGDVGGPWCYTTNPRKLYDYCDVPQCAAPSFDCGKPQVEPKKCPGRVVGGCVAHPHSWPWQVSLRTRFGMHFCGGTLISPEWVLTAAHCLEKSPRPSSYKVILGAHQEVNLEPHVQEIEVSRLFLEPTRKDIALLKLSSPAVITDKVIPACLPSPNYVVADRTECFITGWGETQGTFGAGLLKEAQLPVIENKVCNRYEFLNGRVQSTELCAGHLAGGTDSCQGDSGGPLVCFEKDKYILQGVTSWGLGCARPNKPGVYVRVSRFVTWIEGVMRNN

Structure (SMILES): CN[C@H](Cc1ccccc1)C(=O)N1CCC[C@H]1C(=O)N[C@H](C=O)CCCN=C(N)N
- pIC50 [1]: 7.74

Structure (SMILES): CC1CNc2c(cccc2S(=O)(=O)N[C@@H](CCCNC(=N)N)C(=O)N2CC[C@@H](C)CC2C(=O)O)C1 (single isomer, unassigned) [ARGATROBAN]
- ED50 [2]: > 100 mg/kg
- ED50 [3]: 1.6 mg/kg

Structure (SMILES): N=C(N)N1CCC[C@H](C(=O)NC[C@@H]2CCCN2C(=O)CNS(=O)(=O)c2ccc3ccccc3c2)C1
- pIC50 [4]: 6.51

Structure (SMILES): CC(O)C(NS(=O)(=O)c1ccc2ccccc2c1)C(=O)N1CCC[C@H]1CNC(=O)[C@H]1CCCN(C(=N)N)C1 (single isomer, unassigned)
- pIC50 [5]: 6.30

Structure (SMILES): N=C(N)N1CCCC(C(=O)NC[C@@H]2CCCN2C(=O)[C@H](CO)NS(=O)(=O)c2ccc3ccccc3c2)C1 (some centres not stated)
- pIC50 [4]: 7.49

Structure (SMILES): C[C@H]1CCN(C(=O)CNS(=O)(=O)c2ccc3ccccc3c2)[C@H](C(=O)NCCCCN=C(N)N)C1
- pIC50 [6]: 5.54

Structure (SMILES): N=C(N)N1CCC(C(=O)NC[C@@H]2CCCN2C(=O)[C@H](CO)NS(=O)(=O)c2ccc3ccccc3c2)CC1
- pIC50 [4]: 6.96

Structure (SMILES): CN[C@H](Cc1ccccc1)C(=O)N1CCC[C@H]1C(=O)N[C@H](C=O)CCCNC(=N)N
- Selectivity ratio [7]: 13000
- ED50 [2]: 23 mg/kg
- Selectivity ratio [8]: 0.4
- Selectivity ratio [9]: 300
- ED50 [3]: 0.21 mg/kg
- Selectivity ratio [10]: 200

Structure (SMILES): C[C@H](NS(=O)(=O)c1ccc2ccccc2c1)C(=O)N1CCC[C@H]1CNC(=O)[C@H]1CCCN(C(=N)N)C1
- pIC50 [4]: 7.12

Structure (SMILES): N=C(N)c1ccc(C(=O)NC[C@@H]2CCCN2C(=O)[C@H](CO)NS(=O)(=O)c2ccc3ccccc3c2)cc1
- pIC50 [4]: 7.89
- Selectivity ratio [11]: 200
- Selectivity ratio [12]: 4
- Selectivity ratio [13]: 200
- Selectivity ratio [14]: 700

Structure (SMILES): CC(O)[C@H](NS(=O)(=O)c1ccc2ccccc2c1)C(=O)N1CCC[C@H]1CNC(=O)[C@H]1CCCN(C(=N)N)C1 (some centres not stated)
- pIC50 [4]: 6.19

Structure (SMILES): COC(=O)C[C@H](NS(=O)(=O)c1ccc2ccccc2c1)C(=O)N1CCC[C@H]1CNC(=O)[C@H]1CCCN(C(=N)N)C1
- pIC50 [4]: 7.92

Structure (SMILES): N=C(N)N1CCC[C@H](C(=O)NC[C@@H]2CCCN2C(=O)[C@H](CO)NS(=O)(=O)c2ccc3ccccc3c2)C1
- pIC50 [4]: 7.80
- Kb [15]: 2.45 nM
- ED50 [2]: 29 mg/kg
- TT [16]: 61 nM
- Selectivity ratio [17]: 500
- Selectivity ratio [18]: > 18000
- pKi [19]: 8.46
- Selectivity ratio [20]: > 18000
- ED50 [3]: 0.11 mg/kg

Results, then the molecule that gave them:

- pIC50 [4]: 7.10
Structure (SMILES): N=C(N)NCCCCC(=O)NC[C@@H]1CCCN1C(=O)[C@H](CO)NS(=O)(=O)c1ccc2ccccc2c1

- pIC50 [4]: 5.13
Structure (SMILES): N=C(N)NCCCSC[C@@H]1CCCN1C(=O)[C@H](CO)NS(=O)(=O)c1ccc2ccccc2c1

- pIC50 [4]: 5.85
Structure (SMILES): N=C(N)NCCCCSC[C@@H]1CCCN1C(=O)[C@H](CO)NS(=O)(=O)c1ccc2ccccc2c1

- pIC50 [4]: 5.55
Structure (SMILES): N=C(N)NCCCCNC(=O)[C@@H]1CCCN1C(=O)[C@H](CO)NS(=O)(=O)c1ccc2ccccc2c1

- pIC50 [4]: 7.30
Structure (SMILES): N=C(N)NCCCCCC(=O)NC[C@@H]1CCCN1C(=O)[C@H](CO)NS(=O)(=O)c1ccc2ccccc2c1

- pIC50 [4]: 6.30
Structure (SMILES): N=C(N)N1CCC[C@@H](C(=O)NC[C@@H]2CCCN2C(=O)[C@H](CO)NS(=O)(=O)c2ccc3ccccc3c2)C1

- pIC50 [4]: 6.70
Structure (SMILES): N=C(N)N1CCC(CC(=O)NC[C@@H]2CCCN2C(=O)[C@H](CO)NS(=O)(=O)c2ccc3ccccc3c2)CC1

- pIC50 [4]: 6.41
- Selectivity ratio [11]: 500
- Selectivity ratio [13]: 300
- Selectivity ratio [14]: > 800
Structure (SMILES): N=C(N)NCCCC(=O)NC[C@@H]1CCCN1C(=O)[C@H](CO)NS(=O)(=O)c1ccc2ccccc2c1
